Laboratory results published in patent US11957687B2 (REGENERON PHARMACEUTICALS, INC., priority 2019, dated 2024).
Values joined by “and” are separate entries in the source; they are usually repeats but may differ in a detail not shown here. Equal values may be shown once.

Target: HSD17B13 (Homo sapiens (Human), UniProt Q7Z5P4)
Test: HSD17B13 enzymatic inhibition assay (150 nM or 50 nM HSD17B13)
Type: biochemical
Details: 50 nM HSD17B13; read-out: Inhibition of 50 nM of HSD17B13 IC50

HSD17B13, sequence (Q7Z5P4 other isoform, or with tags, fused parts or gaps): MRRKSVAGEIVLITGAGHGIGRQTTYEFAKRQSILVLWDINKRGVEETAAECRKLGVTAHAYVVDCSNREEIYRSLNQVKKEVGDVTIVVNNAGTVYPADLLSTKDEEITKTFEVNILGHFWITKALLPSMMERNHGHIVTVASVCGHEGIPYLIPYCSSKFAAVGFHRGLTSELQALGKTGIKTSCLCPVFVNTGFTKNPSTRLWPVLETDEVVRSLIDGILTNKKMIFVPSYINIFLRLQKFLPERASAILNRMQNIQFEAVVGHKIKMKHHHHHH

IC50 | SMILES
1.94 µM | O=C(NC(c1ccccc1)c1ccc(C2CCOC2)cc1)c1ccc(C(F)(F)F)[nH]c1=O (centres unmarked) [Compound 86, N-(phenyl(4-(tetrahydrofuran-3-yl)phenyl)methyl)-2-oxo-6-(trifluoromethyl)-1,2-dihydropyridine-3-carboxamide]
1.13 µM | O=C(NC(c1ccccc1)c1ccc(C2=CCOC2)cc1)c1ccc(C(F)(F)F)[nH]c1=O (centres unmarked) [Compound 87, N-((4-(2,5-dihydrofuran-3-yl)phenyl)(phenyl)methyl)-2-oxo-6-(trifluoromethyl)-1,2-dihydropyridine-3-carboxamide]
> 10 µM | O=C(NC(c1ccccc1)c1ccc(N2CCNCC2)cc1)c1ccc(C(F)(F)F)[nH]c1=O (centres unmarked) [Compound 88, N-(phenyl(4-(piperazin-1-yl)phenyl)methyl)-2-oxo-6-(trifluoromethyl)-1,2-dihydropyridine-3-carboxamide]
1.09 µM | O=C(NC(c1ccccc1)c1ccc2c(c1)OCCC2)c1ccc(C(F)(F)F)[nH]c1=O (centres unmarked) [Compound 89, N-(chroman-7-yl(phenyl)methyl)-2-oxo-6-(trifluoromethyl)-1,2-dihydropyridine-3-carboxamide]
0.52 µM | O=C(NC(c1ccccc1)c1ccc2c(c1)CCC2)c1ccc(C(F)(F)F)[nH]c1=O (centres unmarked) [Compound 90, N-((2,3-dihydro-1H-inden-5-yl)(phenyl)methyl)-2-oxo-6-(trifluoromethyl)-1,2-dihydropyridine-3-carboxamide]
0.92 µM | O=C(NC(c1ccccc1)c1ccc2c(c1)CCO2)c1ccc(C(F)(F)F)[nH]c1=O (centres unmarked) [Compound 91, N-((2,3-dihydrobenzofuran-5-yl)(phenyl)methyl)-2-oxo-6-(trifluoromethyl)-1,2-dihydropyridine-3-carboxamide]
2.14 µM | O=C(NC(c1ccccc1)c1ccc(-c2cncnc2)cc1)c1ccc(C(F)(F)F)[nH]c1=O (centres unmarked) [Compound 92, N-(phenyl(4-(pyrimidin-5-yl)phenyl)methyl)-2-oxo-6-(trifluoromethyl)-1,2-dihydropyridine-3-carboxamide]
1.46 µM and 0.35 µM | CN1CCN(c2ccc(C(NC(=O)c3ccc(C(F)(F)F)[nH]c3=O)c3ccccc3)cc2)CC1 (centres unmarked) [Compound 95, N-((4-(4-methylpiperazin-1-yl)phenyl)(phenyl)methyl)-2-oxo-6-(trifluoromethyl)-1,2-dihydropyridine-3-carboxamide]
1.74 µM | O=C(NC(c1ccccc1)c1ccc(N2CCN(CC(F)(F)F)CC2)cc1)c1ccc(C(F)(F)F)[nH]c1=O (centres unmarked) [Compound 96, N-(phenyl(4-(4-(2,2,2-trifluoroethyl)piperazin-1-yl)phenyl)methyl)-2-oxo-6-(trifluoromethyl)-1,2-dihydropyridine-3-carboxamide]
2.3 µM | O=C(NC(c1ccccc1)c1ccc(-c2ncccn2)cc1)c1ccc(C(F)(F)F)[nH]c1=O (centres unmarked) [Compound 97, 2-oxo-N-(phenyl(4-(pyrimidin-2-yl)phenyl)methyl)-6-(trifluoromethyl)-1,2-dihydropyridine-3-carboxamide]
> 10 µM | NCc1ccc(C(NC(=O)c2ccc(C(F)(F)F)[nH]c2=O)c2ccccc2)cc1 (centres unmarked) [Compound 98, N-((4-(aminomethyl)phenyl)(phenyl)methyl)-2-oxo-6-(trifluoromethyl)-1,2-dihydropyridine-3-carboxamide]
2.72 µM | O=C(NC(c1ccccc1)c1ccc(C2COC2)cc1)c1ccc(C(F)(F)F)[nH]c1=O (centres unmarked) [Compound 99, N-((4-(oxetan-3-yl)phenyl)(phenyl)methyl)-2-oxo-6-(trifluoromethyl)-1,2-dihydropyridine-3-carboxamide]
0.74 µM | O=C(NC(c1ccccc1)c1ccc(-c2ccccn2)cc1)c1ccc(C(F)(F)F)[nH]c1=O (centres unmarked) [Compound 100, 2-oxo-N-(phenyl(4-(pyridin-2-yl)phenyl)methyl)-6-(trifluoromethyl)-1,2-dihydropyridine-3-carboxamide]
1.23 µM | O=C(NC(c1ccccc1)c1ccc(-c2cnccn2)cc1)c1ccc(C(F)(F)F)[nH]c1=O (centres unmarked) [Compound 101, 2-oxo-N-(phenyl(4-(pyrazin-2-yl)phenyl)methyl)-6-(trifluoromethyl)-1,2-dihydropyridine-3-carboxamide]
> 10 µM | CNCc1ccc(C(NC(=O)c2ccc(C(F)(F)F)[nH]c2=O)c2ccccc2)cc1 (centres unmarked) [Compound 102, N-((4-((methylamino)methyl)phenyl) (phenyl)methyl)-2-oxo-6-(trifluoromethyl)-1,2-dihydropyridine-3-carboxamide]
> 10 µM | CN(C)Cc1ccc(C(NC(=O)c2ccc(C(F)(F)F)[nH]c2=O)c2ccccc2)cc1 (centres unmarked) [Compound 103, N-((4-((dimethylamino)methyl)phenyl)(phenyl)methyl)-2-oxo-6-(trifluoromethyl)-1,2-dihydropyridine-3-carboxamide]
8.65 µM | O=C(NC(c1ccccc1)c1ccc(C2CCNCC2)cc1)c1ccc(C(F)(F)F)[nH]c1=O (centres unmarked) [Compound 104, 2-oxo-N-(phenyl(4-(piperidin-4-yl)phenyl)methyl)-6-(trifluoromethyl)-1,2-dihydropyridine-3-carboxamide]

IC50 | SMILES
> 10 µM | CN1CCC(c2ccc(C(NC(=O)c3ccc(C(F)(F)F)[nH]c3=O)c3ccccc3)cc2)CC1 (centres unmarked) [Compound 106, N-((4-(1-methylpiperidin-4-yl)phenyl)(phenyl)methyl)-2-oxo-6-(trifluoromethyl)-1,2-dihydropyridine-3-carboxamide]
0.96 µM | O=C(NC(c1ccccc1)c1ccc2c(c1)CCCN2)c1ccc(C(F)(F)F)[nH]c1=O (centres unmarked) [Compound 107, 2-oxo-N-(phenyl(1,2,3,4-tetrahydroquinolin-6-yl)methyl)-6-(trifluoromethyl)-1,2-dihydropyridine-3-carboxamide]
> 10 µM | O=C(NC(c1ccccc1)c1ccc2c(c1)CNCC2)c1ccc(C(F)(F)F)[nH]c1=O (centres unmarked) [Compound 108, 2-oxo-N-(phenyl(1,2,3,4-tetrahydroisoquinolin-7-yl)methyl)-6-(trifluoromethyl)-1,2-dihydropyridine-3-carboxamide]
0.82 µM | O=C(NC(c1ccccc1)c1ccc(CO)cc1)c1ccc(C(F)(F)F)[nH]c1=O (centres unmarked) [Compound 109, N-((4-(hydroxymethyl)phenyl) (phenyl)methyl)-2-oxo-6-(trifluoromethyl)-1,2-dihydropyridine-3-carboxamide]
0.84 µM | O=C(NC(c1ccccc1)c1ccc2c(c1)NCCC2)c1ccc(C(F)(F)F)[nH]c1=O (centres unmarked) [Compound 110, 2-oxo-N-(phenyl(1,2,3,4-tetrahydroquinolin-7-yl)methyl)-6-(trifluoromethyl)-1,2-dihydropyridine-3-carboxamide]
> 10 µM | O=C(NC(c1ccccc1)c1ccc2c(c1)CCNC2)c1ccc(C(F)(F)F)[nH]c1=O (centres unmarked) [Compound 112, 2-oxo-N-(phenyl(1,2,3,4-tetrahydroisoquinolin-6-yl)methyl)-6-(trifluoromethyl)-1,2-dihydropyridine-3-carboxamide]
> 10 µM | O=C(NC(c1ccccc1)c1ccc2c(c1)CNC2)c1ccc(C(F)(F)F)[nH]c1=O (centres unmarked) [Compound 113, N-(isoindolin-5-yl(phenyl)methyl)-2-oxo-6-(trifluoromethyl)-1,2-dihydropyridine-3-carboxamide]
0.28 µM | O=C(NC(c1ccccc1)c1ccc(C2CCN(CC(F)(F)F)CC2)cc1)c1ccc(C(F)(F)F)[nH]c1=O (centres unmarked) [Compound 114, 2-oxo-N-(phenyl(4-(1-(2,2,2-trifluoroethyl)piperidin-4-yl)phenyl)methyl)-6-(trifluoromethyl)-1,2-dihydropyridine-3-carboxamide]
> 10 µM | Cc1ccc(C(NC(=O)c2cc(C(F)(F)F)c[nH]c2=O)c2ccc(C)cc2)cc1 [Compound 116, N-(di-p-tolylmethyl)-2-oxo-5-(trifluoromethyl)-1,2-dihydropyridine-3-carboxamide]
> 10 µM | Cc1ccc(C(NC(=O)c2cc(C)c(C(F)F)[nH]c2=O)c2ccc(C)cc2)cc1 [Compound 117, N-(di-p-tolylmethyl)-6-(difluoromethyl)-5-methyl-2-oxo-1,2-dihydropyridine-3-carboxamide]
0.3 µM | C=Cc1cc(C(=O)NC(c2ccc(C)cc2)c2ccc(C)cc2)c(=O)[nH]c1C(F)(F)F [Compound 118, N-(di-p-tolylmethyl)-2-oxo-6-(trifluoromethyl)-5-vinyl-1,2-dihydropyridine-3-carboxamide]
0.25 µM | CCc1cc(C(=O)NC(c2ccc(C)cc2)c2ccc(C)cc2)c(=O)[nH]c1C(F)(F)F [Compound 119, N-(di-p-tolylmethyl)-5-ethyl-2-oxo-6-(trifluoromethyl)-1,2-dihydropyridine-3-carboxamide]
0.87 µM | Cc1ccc(C(NC(=O)c2cc(CCO)c(C(F)(F)F)[nH]c2=O)c2ccc(C)cc2)cc1 [Compound 120, N-(di-p-tolylmethyl)-5-(2-hydroxyethyl)-2-oxo-6-(trifluoromethyl)-1,2-dihydropyridine-3-carboxamide]
0.22 µM | C=CCc1cc(C(=O)NC(c2ccc(C)cc2)c2ccc(C)cc2)c(=O)[nH]c1C(F)(F)F [Compound 121, 5-allyl-N-(di-p-tolylmethyl)-2-oxo-6-(trifluoromethyl)-1,2-dihydropyridine-3-carboxamide]
> 10 µM | Cc1ccc(C(NC(=O)c2c(C(F)(F)F)cc[nH]c2=O)c2ccc(C)cc2)cc1 [Compound 122, N-(di-p-tolylmethyl)-2-oxo-4-(trifluoromethyl)-1,2-dihydropyridine-3-carboxamide]
5.79 µM | Cc1cc(C(F)(F)F)[nH]c(=O)c1C(=O)NC(c1ccccc1)c1ccccc1 [Compound 123, N-benzhydryl-4-methyl-2-oxo-6-(trifluoromethyl)-1,2-dihydropyridine-3-carboxamide]
1.4 µM | Cc1cc(C(F)(F)F)[nH]c(=O)c1C(=O)NC(c1ccccc1)c1ccc(Cl)cc1 (centres unmarked) [Compound 124, N-((4-chlorophenyl)(phenyl)methyl)-4-methyl-2-oxo-6-(trifluoromethyl)-1,2-dihydropyridine-3-carboxamide]

SMILES | IC50
O=C(NC(c1ccccc1)c1ccc(C2=CCNCC2)cc1)c1ccc(C(F)(F)F)[nH]c1=O (centres unmarked) [Compound 105, 2-oxo-N-(phenyl(4-(1,2,3,6-tetrahydropyridin-4-yl)phenyl)methyl)-6-(trifluoromethyl)-1,2-dihydropyridine-3-carboxamide] | 4.28 µM
